Results as given in ChEMBL document CHEMBL1127901, “Conformationally constrained analogues of dag .8. Changes in PK-C binding affinity produced by isosteric groups of the 3-O-acyl function in 2-deoxy-L-ribonolactones” (Bioorg Med Chem Lett, 1994).

target: Protein kinase C (PKC); assay: Inhibition of [3H]-PDBU binding to protein kinase C mixture; format: protein assay, Rattus norvegicus

Row | Ki | Structure (SMILES)
1 | 3310 nM | CCCCCCCCCCCCCCO[C@@H]1CC(=O)O[C@H]1CO
2 | 50750 nM | CCCCCCCCCCCCCCC(=O)[C@@H]1CC(=O)O[C@H]1CO
3 | 8070 nM | CCCCCCCCCCCCCCOC(=O)[C@@H]1CC(=O)O[C@H]1CO

target: Protein kinase C alpha type (Rattus norvegicus, UniProt P05696); assay: Inhibition of [3H]PDBU binding to Protein kinase C alpha

Row | Ki | Structure (SMILES)
4 | 18600 nM | CCCCCCCCCCCCCCOC(=O)C[C@@H]1CC(=O)O[C@H]1CCO
5 | 3100 nM | CCCCCCCCCCCCCC(=O)OC[C@@H]1CC(=O)O[C@H]1CO
6 | 1470 nM | CCCCCCCCCCCCCCOC(=O)C[C@@H]1CC(=O)O[C@H]1CO
7 | 1500 nM | CCCCCCCCCCCCCC(=O)O[C@@H]1CC(=O)O[C@H]1CO
8 | 880 nM | CCCCCCCCCCCCCC(=O)O[C@@H]1CC(=O)O[C@H]1CCO

target: Protein kinase C (PKC); assay: Inhibition of [3H]PDBU binding to protein kinase C mixture; format: protein assay, Rattus norvegicus

Row | Ki | Structure (SMILES)
9 | 2500 nM | CCCCCCCCCCCCCC(=O)O[C@@H]1CC(=O)O[C@H]1CO
